The values that follow come from patent publication US8106085B2, “Indoline-substituted pyrazoline derivatives, their preparation and use as medicaments” (Laboratorios Del Dr. Esteve, S.A., priority 2005, dated 2012).

A word on the IC50: it is the concentration that inhibits the measured activity by half. A higher IC50 goes with weaker potency.

Assay [1] has as its target T1, CB1 receptor (Homo sapiens, UniProt P21554).
T1 construct: purchased Receptor Biology, Inc
Put plainly: In-vitro determination of affinity to CB1/CB2 receptors (radioligand [3H]-CP55940). As to conditions: transfected human receptor, binding. How it is done:
Pharmacological Data: Pharmacological Methods I. In-Vitro Determination of Affinity to CB1/CB2-Receptors
The in-vitro determination of the affinity of the inventive quaternary ammonium salts of substituted pyrazoline compounds to CB1/CB2-Rezeptors is carried out as described in the publication of Ruth A. Ross, Heather C. Brockie et al., “Agonist-inverse agonist characterization at CB1 and CB2 cannabinoid receptors of L-759633, L759656 and AM630”, British Journal of Pharmacology, 126, 665-672, (1999), whereby the transfected human CB1 and CB2 receptors of Receptor Biology, Inc. are used. The radioligand used for both receptors is [^3H]-CP55940. The respective parts of the description are hereby incorporated by reference and forms part of the present disclosure.
The affinity of the inventive substituted pyrazoline compounds to CB1/CB2 receptors was determined as described above.

Assay [2] concerns the target recombinant human cannabinoid 1 receptor (CB1) (Homo sapiens, UniProt P21554). The experiment in a line: [35S]GTPγS binding assay, antagonism against WIN 55,212-2. Particulars: compound at 1 μM against WIN 55,212-2 dose response; CHO-CB1 membranes; 100% = effect of internal standard CB1-antagonist. It is filed as biochemical. How it is done:
The percentage of catalepsy is determined according to the following formula: % Catalepsy=arithmetic mean/6×100 Antagonistic Assay: Materials and Methods. Membrane Preparation:
Chinese hamster ovary (CHO) cells stably expressing recombinant human cannabinoid 1 receptor (CB1) were cultured in nutrient mixture Ham's F 12 supplemented with 10% heat-inactivated fetal bovine serum, 2 mM L-glutamine, 50 U/ml penicillin, 50 U/ml streptomycin and 0.5 mg/ml geneticin. In order to obtain cells, culture flasks were washed twice with phosphate buffered saline and scraped. Then, cells were collected by centrifugation (200×g, 10 min) and stored dry at −80° C. Cells were homogenized in ice-cold 20 mM HEPES, 10 mM EDTA (pH 7.5) and centrifuged at 40,000×g for 15 min at 4° C. The pellet was resuspended in 20 mM HEPES, 0.1 mM EDTA (pH 7.5) and centrifuged for 15 min at 4° C. The final pellet was resuspended in 20 mM HEPES, 0.1 mM EDTA (pH 7.5), and divided in aliquots and stored at −80° C. until use.
[^35S]GTPγS Binding Assay:
The reaction was performed in 96-well plates. Membranes (15 µg protein/well) were incubated for 60 min at 30° C. in buffer (50 mM HEPES, 100 mM KCl, 5 mM MgCl2, 1 mM EDTA, 0.1% wt/vol bovine serum albumin, 5 μM GDP, saponin (10 μg/ml), 0.5 nM [^35S]GTPγS, pH 7.4) with compound at 1 μM final concentration in either the absence or presence of dose response curve of agonist WIN 55,212-2 between 3 nM and 3 μM. The incubation was terminated by rapid filtration through Millipore Multiscreen glass fiber FB, and rinsed two-times with ice-cold assay buffer. Filter plates were dried and 30 μl of scintillation liquid was added. Radioactivity was determined using Wallac Microbeta Trilux. Each experiment was performed at least in duplicate. A WIN 55,212-2 dose-response was systematically performed.
The average of basal [^35S]GTPγS binding was subtracted from all binding data. In order to compare the antagonism results from one screening campaign to another one, the difference between the maximal agonist effect of WIN 55,212-2 alone, and the maximal antagonism effect due to WIN 55,212-2 with an internal standard CB1-antagonist was defined as 100%.
A general note: GTPγS is a poorly hydrolysed GTP analogue; its binding reports G protein activation.

Chain of recombinant human cannabinoid 1 receptor (CB1) (P21554 whole entry): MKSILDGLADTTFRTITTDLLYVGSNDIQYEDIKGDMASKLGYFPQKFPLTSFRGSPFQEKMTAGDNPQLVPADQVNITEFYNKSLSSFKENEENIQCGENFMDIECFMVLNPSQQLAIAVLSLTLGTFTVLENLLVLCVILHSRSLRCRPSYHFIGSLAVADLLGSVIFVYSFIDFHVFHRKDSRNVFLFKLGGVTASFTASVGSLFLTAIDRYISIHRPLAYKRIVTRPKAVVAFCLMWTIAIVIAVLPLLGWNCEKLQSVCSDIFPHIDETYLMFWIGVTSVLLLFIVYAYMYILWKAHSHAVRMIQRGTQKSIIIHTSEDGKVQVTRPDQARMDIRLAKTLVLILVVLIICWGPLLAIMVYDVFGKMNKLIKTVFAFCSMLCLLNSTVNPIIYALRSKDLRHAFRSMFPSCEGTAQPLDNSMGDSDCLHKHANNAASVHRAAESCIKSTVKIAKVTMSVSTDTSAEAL
T1 sequence (P21554 whole entry): as above

The compound `CC1Cc2ccccc2N1NC(=O)C1=NN(c2ccc(Cl)cc2Cl)[C@@H](c2ccc(Cl)cc2)[C@H]1C` (relative stereo) [Example 5, cis-5-(4-chlorophenyl)-1-(2,4-dichlorophenyl)-4-methyl-N-(2-methylindolin-1-yl)-4,5-dihydro-1H-pyrazole-3-carboxamide] came in with an IC50 in assay [1] of 128 nM. In assay [2], the “Antagonism (%)” value was found to be 16 ± 15%.

Consider `C[C@@H]1C(C(=O)NN2CCc3ccccc32)=NN(c2ccc(Cl)cc2Cl)[C@H]1c1ccc(Br)cc1` (relative stereo) [Example 7, trans-5-(4-bromophenyl)-1-(2,4-dichlorophenyl)-N-(indolin-1-yl)-4-methyl-4,5-dihydro-1H-pyrazole-3-carboxamide], for which, in assay [1], the IC50 was 39 nM. For the same compound, the “Antagonism (%)” value in assay [2] was determined as 67 ± 3%.

As to `C[C@H]1C(C(=O)NN2CCc3ccccc32)=NN(c2ccc(Cl)cc2Cl)[C@H]1c1ccc(F)cc1` (relative stereo) [Example 8, cis-1-(2,4-dichlorophenyl)-5-(4-fluorophenyl)-N-(indolin-1-yl)-4-methyl-4,5-dihydro-1H-pyrazole-3-carboxamide], in assay [2], the “Antagonism (%)” value is 48%.

`C[C@H]1C(C(=O)NN2CCc3ccccc32)=NN(c2ccc(Cl)cc2Cl)[C@H]1c1ccc(Cl)cc1` [Example 3, (4R,5R)-5-(4-chlorophenyl)-1-(2,4-dichlorophenyl)-N-(indolin-1-yl)-4-methyl-4,5-dihydro-1H-pyrazole-3-carboxamide] came in with an IC50 in assay [1] of 100 nM. For the same compound, the “Antagonism (%)” value in assay [2] turned out to be 70%.
